Laboratory results taken from patent publication US11246818B2, “Peptides and compositions for use in cosmetics” (LIPOTRUE, S.L., priority 2017, dated 2022).

Experiments:
[1] = Trolox Equivalent Antioxidant Capacity (TEAC), ABTS Decolorization Assay; format: biochemical
Method: As positive controls of the assay, ascorbic acid 2-glucoside (hereinafter, AA-2G) and magnesium ascorbyl phosphate (hereinafter, MAP) were tested.
TEAC assay was used in this case. Said assay measures the antioxidant capacity of a given substance, as compared to the standard, Trolox, an analogue of Vitamin E.
Antioxidant capacity was measured using the ABTS Decolorization Assay. In this assay, the pre-formed radical monocation of 2,2′-azinobis-(3-ethylbenzothiazoline-6-sulfonic acid) (ABTS*+) was generated by oxidation of ABTS with potassium persulfate and was reduced in the presence of antioxidants (Ac-SEQ ID NO: 1-NH2, Ac-SEQ ID NO: 2-NH2, Ac-SEQ ID NO: 3-NH2 or Ferulic acid-SEQ ID NO: 2-NH2). The ABTS.+ has a blue-green color, with maximum absorptions at 650, 734 and 820 nm. Antioxidants in the sample reduce ABTS.+ suppressing this color production to a degree that is proportional to their concentrations and antioxidant capacity. Quantification of absorbance was conducted at 734 nm using a Polarstar Omega equipment (BMG Labtech).

HEMn cells [2] = test: Gene expression of melanogenic pathways, HEMn cells, 11-day treatment (RTqPCR); format: cell-based, human
Description: Changes in gene expression levels are represented as a positive or negative fold-change with regard to the basal control (untreated cells). For FIG. 16(A), bars from top to bottom in the y-axis refer to: COX-1 (Cyclooxigenase-1), MITF ([…]), MC1R (Melanocortin-1 receptor), MLAN-A (Melanoma antigen recognized by T-cells), C-KIT (Protoongogen receptor tyrosine kinase KIT), PMEL17 (Pre-melanosome protein), DCT-TYRP2 (Dopachrome tautomerase), TYRP-1 (Tyrosinase related protein 1) and TYR (Tyrosinase). For FIG. 16(B), bars from top to bottom in the y-axis refer to: BLOC-1 (Biogenesis of lysosome-related organelles complex-1), MITF ([…]), MC1R (Melanocortin-1 receptor), MLAN-A (Melanoma antigen recognized by T-cells), C-KIT (Protoongogen receptor tyrosine kinase KIT), PMEL17 (Pre-melanosome protein), DCT-TYRP2 (Dopachrome tautomerase), TYRP-1 (Tyrosinase related protein 1) and TYR (Tyrosinase). The x-axis refers to fold change versus basal control.
Changes in gene expression levels are represented as a positive or negative fold-change with regard to the basal control (untreated cells). Bars from top to bottom in the y-axis refer to: VDR (Vitamin D receptor), PMEL17 (Pre-melanosome protein) and DCT-TYRP2 (Dopachrome tautomerase). The x-axis refers to fold change versus basal control.
In the case of HEMn cells, cells were left in culture for 12 days (from day 0 to day 11, 11-day treatment) at standard culture conditions (37° C., 95% humidity, 5% CO2) and treated with non-cytotoxic concentrations of Ac-SEQ ID NO: 3-NH2 (0.1 mg/mL) or Ferulic acid-SEQ ID NO: 2-NH2 (0.05 mg/mL) from day 4 to day 11.
(§1) Untreated cells were used as basal control. Cells were then lysed for RNA extraction with a RNA purification commercial kit following manufacturer instructions (RNeasy mini kit, Qiagen, Netherlands). RNA was then quantified by nanodrop, adjusted in concentration and processed for retrotranscription to cDNA using a commercially available kit (High-Capacity cDNA Reverse Transcription kit—Thermofisher Scientific, USA). Resulting cDNA was used to perform a RTqPCR (Real Time Quantitative Polymerase Chain Reaction) using Taqman technology and a panel of probes designed to target specific genes related to melanogenesis and HEMn-HEKa and HEMn-HDFa communication.

[3] = system: recombinant mushroom tyrosinase; test: Mushroom tyrosinase activity in tubo (L-DOPA); format: biochemical
Method: (§2) Kojic acid was used as positive control.
as §2
After 2 hours' reaction at room temperature, the absorbance at 450 nm of each well was determined using the microplate reader Multiskan FC (Thermo Fisher Scientific, MA, USA), which is directly proportional to the amount of dopachrome in the reaction mixture.

[4] = system: Primary human epidermal melanocytes; test: Brightening activity: intracellular melanin content; format: cell-based; settings: 7 days; for decrease in melanin content compared with positive reference control (kojic acid): 70 μM kojic acid
Method: Two concentrations of kojic acid were used as positive control.
as §2
Primary human epidermal melanocytes were incubated in 6-well plates for 4 days and then treated with the compounds to be analysed (Ac-SEQ ID NO: 1-NH2, Ac-SEQ ID NO: 2-NH2, Ac-SEQ ID NO: 3-NH2 or Ferulic acid-SEQ ID NO: 2-NH2) for 7 days. After treatment, cells were homogenized an intracellular melanin content was quantified by absorbance at 450 nm by Multiskan FC (Thermo Fisher Scientific, MA, USA).

HEKa cells = test: Gene expression of HEMn-HEKa communication and melanogenic factors, HEKa cells, 24-hour treatment (RTqPCR); format: cell-based, human
Description: (§3) Changes in gene expression levels are represented as a positive or negative fold-change with regard to the basal control (untreated cells). Bars from top to bottom in the y-axis refer to: KITLG (KIT ligand), TP53 (Tumor protein p53), DKK1 (Dickkopf-related protein 1) and NGF (Nerve growth factor). The x-axis refers to fold change verus basal control.
as §3, with “POMC (Pro-opiomelanocortin), EDN1 (Endothelin-1)” for “TP53 (Tumor protein p53), DKK1 (Dickkopf-related protein 1)”, “versus” for “verus”
Briefly, HEKa cells were seeded in duplicate in 6-well plates at a density of 4×10^5 cells/well and maintained at standard culture conditions (37° C., 95% humidity, 5% CO2) for 24 hours. Then, cells were treated with non-cytotoxic concentrations of Ac-SEQ ID NO: 3-NH2 (0.1 mg/mL) or Ferulic acid-SEQ ID NO: 2-NH2 (0.05 mg/mL) for an additional 24 hours.
as §1

[5] = DPPH free radical scavenging assay in tubo; format: biochemical
Description: The capacity to scavenge the stable DPPH free radical can be expressed as a measure of antioxidant activity.
During this assay, the purple chromogen (DPPH) radical was reduced by antioxidant/reducing compounds to the corresponding pale-yellow hydrazine. The reduction of the purple chromogen radical by hydrogen-donating antioxidants was monitored by the decrease of optical density at long wavelengths (515-520 nm).
Ascorbic acid was also included in the assay as positive control for scavenger activity evaluation at 30 μM and 60 μM. After 30 minutes of incubation at room temperature and gentle shaking, the absorbance at 520 nm of each well was determined using the microplate reader Multiskan FC (Thermo Fisher Scientific, MA, USA), being directly proportional to the amount of DPPH left (not-scavenged) in the reaction mixture. Absorbance values were normalized on the basis of the control (non-treated wells) which was stablished as 100%, obtaining the corresponding percentage of activity for each of the treatments.

HEMn cells [6] = test: Gene expression of melanogenic pathways, HEMn cells, 24-hour treatment (RTqPCR); format: cell-based, human; settings: 0.1 mg/mL, treatment at 24 h
Description: Changes in gene expression levels are represented as a positive or negative fold-change with regard to the basal control (untreated cells). For FIG. 16(A), bars from top to bottom in the y-axis refer to: COX-1 (Cyclooxigenase-1), MITF ([…]), MC1R (Melanocortin-1 receptor), MLAN-A (Melanoma antigen recognized by T-cells), C-KIT (Protoongogen receptor tyrosine kinase KIT), PMEL17 (Pre-melanosome protein), DCT-TYRP2 (Dopachrome tautomerase), TYRP-1 (Tyrosinase related protein 1) and TYR (Tyrosinase). […]
as §1, with “Cells were then lysed for RNA extraction with a RNA purification commercial kit following manufacturer instructions (RNeasy mini kit, Qiagen, Netherlands).” left out

**Q.** For “Ferulic acid-His-Trp-Phe-Lys-NH2 [Ferulic acid-SEQ ID NO: 2-NH2]”, which trolox equivalents ([1]; 0.01 mg/mL) is on record?
**A.** 59 µM

**Q.** And the trolox equivalents ([1]; 0.05 mg/mL)?
**A.** 112 µM

**Q.** What about the trolox equivalents ([1]; 0.1 mg/mL) of the same molecule?
**A.** 113 µM

**Q.** And the “antioxidant power compared with MAP” value ([1]; at this same concentration (0.05 mg/mL))?
**A.** equals MAP values of trolox equivalents

**Q.** And the “antioxidant power compared with AA-2G” value ([1]; concentrations >0.05 mg/mL)?
**A.** higher than the one of AA-2G

**Q.** And the DCT-TYRP2 expression (HEMn cells [2]; 0.05 mg/mL)?
**A.** slight tendency to downregulate

**Q.** And the PMEL17 expression (HEMn cells [2]; 0.05 mg/mL)?
**A.** slight tendency to downregulate

**Q.** And the “VDR gene expression, fold change versus basal control” value (HEMn cells [2]; 0.05 mg/mL)?
**A.** 1.48 fold change

**Q.** And the “decrease in tyrosinase activity” value ([3]; 0.05 mg/mL)?
**A.** 12%

**Q.** And the “decrease in tyrosinase activity” value ([3]; 0.1 mg/mL)?
**A.** 46.5%

**Q.** And the “decrease in tyrosinase activity” value ([3]; 0.5 mg/mL)?
**A.** 71%

**Q.** What about the “decrease in melanin content” value ([4]; 0.05 mg/mL) of the same molecule?
**A.** 36%

**Q.** What about the “decrease in melanin content compared with positive reference control (kojic acid)” value [4] of the same molecule?
**A.** comparable

**Q.** What about the EDN1 gene expression (HEKa cells; 0.05 mg/mL) of the same molecule?
**A.** downregulation

**Q.** What about the KITLG gene expression (HEKa cells; 0.05 mg/mL) of the same molecule?
**A.** downregulation

**Q.** And the NGF gene expression (HEKa cells; 0.05 mg/mL)?
**A.** downregulation

**Q.** And the POMC gene expression (HEKa cells; 0.05 mg/mL)?
**A.** downregulation

**Q.** And the “reduction of DPPH” value ([5]; 0.05 mg/mL, 300 μM DPPH, 30 minutes)?
**A.** 48.3%

**Q.** What about the “reduction of DPPH” value ([5]; 0.1 mg/mL, 300 μM DPPH, 30 minutes) of the same molecule?
**A.** 72.9%

**Q.** What about the “reduction of DPPH” value ([5]; 0.5 mg/mL, 300 μM DPPH, 30 minutes) of the same molecule?
**A.** 90.6%

**Q.** With `O=C1O[C@H]([C@@H](O)CO)C(O)=C1O` [ascorbic acid, reference compound] as the molecule, how does the “reduction of DPPH” value ([5]; 30 μM, positive control) read?
**A.** 31.3%

**Q.** And the “reduction of DPPH” value ([5]; 60 μM, positive control)?
**A.** 67.6%

**Q.** For “Ac-Leu-His-Trp-Phe-Arg-Ala-NH2 (Ac-LHWFRA-NH2) [Ac-SEQ ID NO: 3-NH2]”, which “expression of genes of the melanogenic pathway” value (HEMn cells [6]) is on record?
**A.** tendency to downregulate gene expression was also observed

**Q.** What about the trolox equivalents ([1]; 0.01 mg/mL) of the same molecule?
**A.** 28 µM

**Q.** What about the trolox equivalents ([1]; 0.05 mg/mL) of the same molecule?
**A.** 59 µM

**Q.** And the trolox equivalents ([1]; 0.1 mg/mL)?
**A.** 74 µM

**Q.** And the “C-KIT gene expression, fold change versus basal control” value (HEMn cells [2]; 0.1 mg/mL)?
**A.** −1.78 fold change

**Q.** And the “COX-1 gene expression, fold change versus basal control” value (HEMn cells [2]; 0.1 mg/mL)?
**A.** −1.51 fold change

**Q.** What about the “DCT-TYRP2 gene expression, fold change versus basal control” value (HEMn cells [2]; 0.1 mg/mL) of the same molecule?
**A.** −1.40 fold change

**Q.** And the “MC1R gene expression, fold change versus basal control” value (HEMn cells [2]; 0.1 mg/mL)?
**A.** −1.28 fold change

**Q.** What about the “MITF gene expression, fold change versus basal control” value (HEMn cells [2]; 0.1 mg/mL) of the same molecule?
**A.** −1.48 fold change

**Q.** And the “MLAN-A gene expression, fold change versus basal control” value (HEMn cells [2]; 0.1 mg/mL)?
**A.** −1.88 fold change

**Q.** And the “PMEL17 gene expression, fold change versus basal control” value (HEMn cells [2]; 0.1 mg/mL)?
**A.** −2.30 fold change

**Q.** What about the “TYR gene expression, fold change versus basal control” value (HEMn cells [2]; 0.1 mg/mL) of the same molecule?
**A.** −1.66 fold change

**Q.** What about the “TYRP-1 gene expression, fold change versus basal control” value (HEMn cells [2]; 0.1 mg/mL) of the same molecule?
**A.** −1.64 fold change

**Q.** And the “decrease in tyrosinase activity” value ([3]; 0.5 mg/mL)?
**A.** 30.6%

**Q.** And the “decrease in tyrosinase activity” value ([3]; 1 mg/mL)?
**A.** 58.1%

**Q.** And the “decrease in melanin content” value ([4]; 0.1 mg/mL)?
**A.** 49.3%

**Q.** And the “decrease in melanin content compared with positive reference control (kojic acid)” value [4]?
**A.** higher than the positive reference control

**Q.** What about the DKK-1 gene expression (HEKa cells; 0.1 mg/mL) of the same molecule?
**A.** upregulation

**Q.** What about the KITLG gene expression (HEKa cells; 0.1 mg/mL) of the same molecule?
**A.** downregulation

**Q.** What about the NGF gene expression (HEKa cells; 0.1 mg/mL) of the same molecule?
**A.** downregulation

**Q.** And the TP53 gene expression (HEKa cells; 0.1 mg/mL)?
**A.** downregulation

**Q.** Which results are given for “Ac-His-Trp-Phe-Lys-NH2 (Ac-HWFK-NH2) [Ac-SEQ ID NO: 2-NH2]”?
**A.** trolox equivalents ([1]; 0.05 mg/mL): 22 µM; trolox equivalents ([1]; 0.1 mg/mL): 49 µM; trolox equivalents ([1]; 0.5 mg/mL): 130 µM; antioxidant power compared with AA-2G and MAP ([1]; the higher concentration tested (0.5 mg/mL)): higher antioxidant power than AA-2G and MAP; brightening or whitening activity compared with kojic acid ([4]; all the concentrations tested (0.01, 0.05, 0.1 mg/ml), kojic acid 10 and 50 μM): significantly higher brightening or whitening activity; increased brightening activity relative to the activity of the two concentrations of kojic acid ([4]; all the concentrations tested, kojic acid 10 and 50 μM): two to more than four times
